From ChEMBL document CHEMBL1133460, “Synthesis and biological evaluation of certain alpha,beta-unsaturated ketones and their corresponding fused pyridines as antiviral and cytotoxic agents” (J Med Chem, 2000)
In brackets after ≈: the same amount, converted by molar mass. Several values for one entry are separate records, joined by “and”; a condition that tells them apart may be missing. Identical values can stand only once.

Key:
Tumor cell line [1] = experiment: In vitro for median growth inhibitory conc. against leukemia (compounds full panel MG-MID/leukemia subpanel MG-MID); format: functional; details: Homo sapiens
[2] = Full panel mean-graph midpoint (MG-MID).
[3] = system: Panel prostate (Carcinoma cell lines); experiment: In vitro growth inhibitory concentration against prostate cancer cell lines; format: functional; details: Homo sapiens
Tumor cell line [4] = experiment: In vitro for median growth inhibitory concentration against colon cancer cell lines; format: functional; details: Homo sapiens
[5] = In vitro growth inhibitory concentration against colon cancer tumor cell lines; format: functional; details: Homo sapiens
Tumor cell line [6] = experiment: In vitro for growth inhibitory concentration against non small lung cancer cell lines; format: functional; details: Homo sapiens
[7] = system: Panel CNS (Carcinoma cell lines); experiment: In vitro growth inhibitory concentration against CNS cancer cell lines; format: functional; details: Homo sapiens
MT4 = experiment: In vitro inhibitory activity against uninfected T4 cells; format: functional, cell-based; details: Homo sapiens
[8] = system: Panel leukemia (Carcinoma cell lines); experiment: In vitro growth inhibitory concentration against leukemia tumor cell lines; format: functional; details: Homo sapiens
[9] = Full panel mean-graph midpoint (MG-MID)
[10] = system: Panel renal (Carcinoma cell lines); experiment: In vitro growth inhibitory concentration against renal cancer cell lines; format: functional; details: Homo sapiens
Tumor cell line [11] = experiment: In vitro for median growth inhibitory concentration against prostate cancer cell lines; format: functional; details: Homo sapiens
Tumor cell line [12] = experiment: In vitro for median growth inhibitory concentration against melanoma cell lines; format: functional; details: Homo sapiens
Tumor cell line [13] = experiment: In vitro for median growth inhibitory concentration against ovarian cancer cell lines; format: functional; details: Homo sapiens
[14] = system: Panel melanoma (Carcinoma cell lines); experiment: In vitro growth inhibitory concentration against melanoma cancer cell lines; format: functional; details: Homo sapiens
Breast cancer cell line [15] = experiment: In vitro growth inhibitory concentration against breast cancer cell lines; format: functional; details: Homo sapiens
Tumor cell line [16] = experiment: In vitro for median growth inhibitory concentration against non small lung cancer cell lines; format: functional; details: Homo sapiens
Tumor cell line [17] = experiment: In vitro for median growth inhibitory concentration against breast cancer cell lines; format: functional; details: Homo sapiens
Tumor cell line [18] = experiment: In vitro for median growth inhibitory concentration against renal cancer cell lines; format: functional; details: Homo sapiens
Tumor cell line [19] = experiment: In vitro for median growth inhibitory concentration against CNS cancer cell lines; format: functional; details: Homo sapiens
Ovarian cancer cell line [20] = experiment: In vitro growth inhibitory concentration against ovarian cancer cell lines; format: functional; details: Homo sapiens
[21] = system: Human immunodeficiency virus 1; experiment: In vitro effective concentration against HIV-1 cytopathic effect in T4 cells; Inactive; format: functional, organism-based
[22] = In vitro effective concentration against HIV-1 cytopathic effect in T4 cells; format: functional, cell-based; details: Homo sapiens
[23] = system: Panel renal (Carcinoma cell lines); experiment: In vitro median growth inhibitory concentration against renal cancer cell lines; format: functional; details: Homo sapiens
Human alphaherpesvirus 1 [24] = experiment: In vitro antiviral activity against Herpes Simplex-1 virus (HSV-1) expressed as percent reduction in the number of viral plaques; format: functional; set-up: concentration or dose not given beside the values
Human alphaherpesvirus 1 [25] = experiment: 50% loss of the monolayer present around the viral plaques in uM; format: functional, organism-based
Homo sapiens = organism: Homo sapiens; experiment: Selectivity ratio between the full panel MG-MID and leukemia subpanel MG-MID was determined.; format: functional
Human alphaherpesvirus 1 [26] = experiment: Minimum antiviral concentration proved to be lethal to viral population in ug/mL.; format: functional
[27] = system: Panel prostate (Carcinoma cell lines); experiment: In vitro median growth inhibitory concentration against prostate cancer cell lines; format: functional; details: Homo sapiens
Tumor cell line [28] = experiment: In vitro growth inhibitory concentration against non-small-cell lung cancer cell lines; format: functional; details: Homo sapiens
[29] = In vitro median growth inhibitory concentration against colon cancer cell lines; format: functional; details: Homo sapiens
[30] = system: Panel CNS (Carcinoma cell lines); experiment: In vitro median growth inhibitory concentration against CNS cancer cell lines; format: functional; details: Homo sapiens
[31] = system: Panel leukemia (Carcinoma cell lines); experiment: In vitro median growth inhibitory conc. against leukemia was estimated.; format: functional; details: Homo sapiens
Breast cancer cell line [32] = experiment: In vitro median growth inhibitory concentration against breast cancer cell lines; format: functional; details: Homo sapiens
Human alphaherpesvirus 1 [33] = experiment: concentration caused 50% loss of the monolayer present around the viral plaques in ug/mL.; format: functional, organism-based
NSCLC [34] = experiment: In vitro median growth inhibitory concentration against non-small-cell lung cancer; format: functional; details: Homo sapiens
Ovarian cancer cell line [35] = experiment: In vitro median growth inhibitory concentration against ovarian cancer cell lines; format: functional; details: Homo sapiens
[36] = system: Panel melanoma (Carcinoma cell lines); experiment: In vitro median growth inhibitory concentration against melanoma cell lines; format: functional; details: Homo sapiens
Human alphaherpesvirus 1 [37] = experiment: Minimum antiviral concentration proved to be lethal to viral population in uM; format: functional
NSCLC [38] = experiment: In vitro growth inhibitory concentration against non-small-cell lung cancer; format: functional; details: Homo sapiens
Tumor cell line [39] = experiment: Median lethal concentration was estimated; format: ADME, cell-based; details: human

Cc1ccc(/C=C2\CN(C)CC3=C2OC(N)=C(C#N)C3c2ccc(C)cc2)cc1 (centres undefined) showed a GI50 (Tumor cell line [1]) of 5.1 µM, an MG-MID [2] of 16.9 µM and a TGI [3] of 66.2 µM. For the same compound, the GI50 (Tumor cell line [4]) was 16.6 µM, the TGI [5] was 43.9 µM and the TGI (Tumor cell line [6]) was 54.1 µM. For the same compound, the TGI [7] was 83.6 µM, the IC50 (MT4) was 11.1 µM and the TGI [8] was 17.9 µM. It also gave an MG-MID [9] of 51.1 µM, a TGI [10] of 54.5 µM and a GI50 (Tumor cell line [11]) of 29.4 µM. For the same compound, the GI50 (Tumor cell line [12]) was 26.6 µM, the GI50 (Tumor cell line [13]) was 15.5 µM and the TGI [14] was 59.5 µM. It also gave a TGI (Breast cancer cell line [15]) of 70.1 µM, a GI50 (Tumor cell line [16]) of 3.3 µM and a TGI (Tumor cell line [17]) of 30.7 µM. It also gave a GI50 (Tumor cell line [18]) of 18.1 µM, a GI50 (Tumor cell line [19]) of 37.7 µM and a TGI (Ovarian cancer cell line [20]) of 55.7 µM. The EC50 [21] was “Not Active”.
In the case of COc1ccc(/C=C2\CN(C)CC3=C2OC(N)=C(C#N)C3c2ccc(OC)cc2)cc1 (centres undefined), the GI50 (Tumor cell line [1]) is reported as 9.1 µM, the MG-MID [2] is reported as 33.3 µM and the TGI [3] is reported as greater than 100 µM. The GI50 (Tumor cell line [4]) was 41.2 µM, the TGI [5] was 97.4 µM and the TGI (Tumor cell line [6]) was 95.5 µM. For the same compound, the TGI [7] was greater than 100 µM, the IC50 (MT4) was 30.4 µM and the TGI [8] was 49.9 µM. It also gave an MG-MID [9] of 85.6 µM, a TGI [10] of 96.9 µM and a GI50 (Tumor cell line [11]) of 79.4 µM. It also gave a GI50 (Tumor cell line [12]) of 70.7 µM, a GI50 (Tumor cell line [13]) of 38.1 µM and a TGI [14] of 93.9 µM. The TGI (Breast cancer cell line [15]) was 93.8 µM, the GI50 (Tumor cell line [16]) was 36.7 µM and the GI50 (Tumor cell line [17]) was 48.6 µM. It also gave a GI50 (Tumor cell line [18]) of 40.4 µM, a GI50 (Tumor cell line [19]) of 60.5 µM and a TGI (Ovarian cancer cell line [20]) greater than 100 µM. The EC50 [21] was “Not Active”.
With Cc1cn([C@H]2C[C@H](N=[N+]=[N-])[C@@H](CO)O2)c(=O)[nH]c1=O [ZIDOVUDINE] the IC50 (MT4) was 35.6 µM and the EC50 [22] was 0.0007 µM.
For Cc1ccc(/C=C2\CN(C)CC3=C2N=C(S)NC3c2ccc(C)cc2)cc1 (centres undefined), the GI50 [23] was 60.8 µM, the TGI [3] was greater than 100 µM and the Reduction (Human alphaherpesvirus 1 [24]) was 45%. It also gave an IC50 (Human alphaherpesvirus 1 [25]) of 0.19 µM, a TGI [5] of 83.6 µM and a Ratio (Homo sapiens) of 1.8. It also gave an MAC (Human alphaherpesvirus 1 [26]) of 0.1 µg/mL, a TGI [7] of 94.1 µM and an IC50 (MT4) of 27.6 µM. The TGI [8] was 62.3 µM, the MG-MID [9] was 34.5 µM and 86.5 µM and the TGI [10] was 96.9 µM. The GI50 [27] was 38.3 µM, the TGI (Tumor cell line [28]) was 89.9 µM and the TGI [14] was greater than 100 µM. The TGI (Breast cancer cell line [15]) was 88.8 µM, the GI50 [29] was 37.1 µM and the GI50 [30] was 53.7 µM. The GI50 [31] was 19.2 µM, the TGI (Ovarian cancer cell line [20]) was 94 µM and the GI50 (Breast cancer cell line [32]) was 39.4 µM. The IC50 (Human alphaherpesvirus 1 [33]) was 0.07 µg/mL (≈ 0.186 µM), the GI50 (NSCLC [34]) was 59.6 µM and the GI50 (Ovarian cancer cell line [35]) was 51.2 µM. For the same compound, the GI50 [36] was 58.8 µM, the MAC (Human alphaherpesvirus 1 [37]) was 0.27 µM and the EC50 [21] was “Not Active”.
With CN1CC2=C(OC(N)=C(C#N)C2c2cccs2)/C(=C/c2cccs2)C1 (centres undefined) the GI50 (Tumor cell line [1]) was 3.2 µM, the MG-MID [2] was 11.6 µM and the TGI [3] was 90.9 µM. It also gave a GI50 (Tumor cell line [4]) of 17.3 µM, a TGI [5] of 87.3 µM and a TGI (Tumor cell line [6]) of 75.5 µM. It also gave a TGI [7] greater than 100 µM, an IC50 (MT4) of 9 µM and a TGI [8] of 27.6 µM. The MG-MID [9] was 57.8 µM, the TGI [10] was 81.6 µM and the GI50 (Tumor cell line [11]) was 13.5 µM. The GI50 (Tumor cell line [12]) was 36.3 µM, the GI50 (Tumor cell line [13]) was 25 µM and the TGI [14] was 87 µM. It also gave a TGI (Breast cancer cell line [15]) of 57.7 µM, a GI50 (Tumor cell line [16]) of 16.3 µM and a TGI (Tumor cell line [17]) of 27.9 µM. The GI50 (Tumor cell line [18]) was 32.5 µM, the GI50 (Tumor cell line [19]) was 42.2 µM and the TGI (Ovarian cancer cell line [20]) was 73.2 µM. For the same compound, the EC50 [21] was “Not Active”.
Compound CN1C/C(=C\c2cccs2)C2=NN(c3ccccc3)C(c3cccs3)C2C1 (centres undefined) has an MG-MID [2] of 8.5 µM, a GI50 [23] of 65.3 µM and a TGI [3] greater than 100 µM. For the same compound, the TGI [5] was 87.1 µM, the Ratio (Homo sapiens) was 3.9 and the TGI [7] was greater than 100 µM. The IC50 (MT4) was 9.1 µM, the TGI (NSCLC [38]) was greater than 100 µM and the TGI [8] was 52.2 µM. It also gave an MG-MID [9] of 72.9 µM, a TGI [10] greater than 100 µM and a GI50 [27] of 19.3 µM. The LC50 (Tumor cell line [39]) was 95.8 µM, the TGI [14] was greater than 100 µM and the TGI (Breast cancer cell line [15]) was greater than 100 µM. The GI50 [29] was 3.8 µM, the GI50 [30] was 35.7 µM and the GI50 [31] was 2.2 µM. For the same compound, the TGI (Ovarian cancer cell line [20]) was greater than 100 µM, the GI50 (Breast cancer cell line [32]) was 23.6 µM and the GI50 (NSCLC [34]) was 20.8 µM. For the same compound, the GI50 (Ovarian cancer cell line [35]) was 24.2 µM, the GI50 [36] was 42.5 µM and the EC50 [21] was “Not Active”.
